# Results from patent US20240294470A1, “FRAGRANCE COMPOUNDS” (Givaudan SA, priority 2021, published 2024).
# Assays:
# [1] = Wash test in liquid detergent: odour intensity and quality on line-dried fabric, assessed by expert panel; conditions: for Odour intensity on dried fabric over time (FIG. 1): 0.2% by weight in liquid detergent, 40° C. wash, fresh dried, after 24 hours and after four days, scale 0 to 5; for Fragrance score after 1 day / Fragrance score after 3 days: line-dried cotton/elastane fabric, panel of 4-6 experts, scale 0 (odourless) to 5 (extremely strong)
# Experimental: A Nitrone precursor (Sample A: (E)-2-methyl-N-(4-methylbenzyl)undecan-1-imine oxide, compound of Example 1) has been compared to the aldehyde (Sample B: 2-methyl undecanal) in a wash test. • 1) Sample preparation: 0.2% by weight of the precursor or the aldehyde have been incorporated into unperfumed liquid detergent base by magnetic stirring at room temperature for 24 h., • 2) Wash test: A 40° C. machine wash cycle was performed using 55 g of the liquid detergent sample containing the test material and odour-neutral cotton/elastan mixed fabric T-shirts. […]
# Further compounds of formula (I) have been tested in liquid detergent. • 1) Sample preparation: 0.2% wt/wt of the test material was incorporated in unperfumed liquid detergent base by magnetic stirring at room temperature for 24 h. • 2) Wash test: a 40° C. machine wash cycle was performed using 55 g of the liquid detergent sample containing the test material and odour-neutral cotton/elastane mixed fabric T-shirts. The wet fabric is line-dried and odour intensity and quality are assessed by a panel of 4-6 experts after 1 and 3 days on an intensity scale of 0 (odourless) to 5 (extremely strong).
# [2] = Biodegradability by manometric respirometry test (OECD guideline No. 301F); conditions: OECD 301F manometric respirometry; oxygen consumption of theory
# Description: The results of the biodegradability assessment by the manometric respirometry test (OECD guideline for the testing of materials No. 301F, Paris 1992) are summarized in Table 2.
# A compound can be classified biodegradable, if it reaches the pass level of 60% oxygen consumption of theory required for complete mineralization.
# It is readily biodegradable, if the pass level is reached within 10 days within the 28-day period of the test. The 10-day window begins when the degree of biodegradation has reached 10%.
# If the pass level is obtained after 28-day period of the test, the compound can be classified as inherently biodegradable.
# [3] = Stability test in liquid detergent base by quantitative HPLC with UV detection; assay type: physicochemical
# Experimental: Example 61: Stability test in liquid detergentThe stability of (E)-N-isopropyl-2-methylundecan-1-imine oxide (compound of Example 9) in a liquid detergent base was assessed by quantitative HPLC with UV detection.
# A liquid detergent sample as prepared above containing the test substance was sampled at TO and after 30 days storage at 37° C. (300 mg diluted with 10 mL acetonitrile/high purity water 1:1), and the concentration of the precursor was assessed by quantitative HPLC-UV using an external calibration curve.
# [4] = Application in shampoo: odour intensity and quality on dry hair swatches, assessed by expert panel; conditions: 0.2% wt/wt in shampoo
# Experimental: • 1) Sample preparation: 0.2% wt/wt of (E)-N-isopropyl-2-methylundecan-1-imine oxide (compound of example 9) was incorporated in unperfumed shampoo base by magnetic stirring at room temperature for 24 h. • 2) Wash test: Hair swatches were wetted with warm tap water, then 2 mL of the above prepared shampoo sample was applied to the hair swatches lathering with gloves delicately for 30 seconds. The hair swatches were rinsed with cold tap water for 20 seconds and excess water was removed by squeezing the hair swatches between two fingers. The hair swatches were left to dry in open air. Their odour intensity and quality was assessed by a panel of 4-6 experts after 1 and 2 days on an intensity scale of 0 (odourless) to 5 (extremely strong). • 3) Results: After 1 day, the fragrance score was 3.2, after 2 days, the fragrance score was 3.3.
# [5] = 0.2% wt/wt in liquid detergent, 40° C. machine wash
Biodegradation in % [2] [%],Compound,"Fragrance score after 1 day [1, 5]","Fragrance score after 3 days [1, 5]",also measured
87,"CCCCCCCCCC(C)/C=[N+](/[O-])Cc1ccccc1 (stereo not shown) [Example 5, (E)-N-benzyl-2-methylundecan-1-imine oxide]",–,–,–
74,"CCCCCCCCCC(C)/C=[N+](/[O-])C1CCCCC1 (stereo not shown) [Example 6, (E)-N-cyclohexyl-2-methylundecan-1-imine oxide]",–,–,–
70,"CCCCCCCCCC(C)/C=[N+](/[O-])C(C)C (stereo not shown) [Example 9, (E)-N-isopropyl-2-methylundecan-1-imine oxide]",2.4,3.2,"Stability in liquid detergent (judgement) ([3]; 30 days storage at 37° C., alkaline liquid detergent): stable; Concentration of the precursor in liquid detergent, initial ([3]; liquid detergent base, T0, HPLC-UV): 0.21 weight %; Concentration of the precursor in liquid detergent after storage ([3]; liquid detergent base, after 30 days storage at 37° C., HPLC-UV): 0.18 weight %; Perceived odour on dry hair [4]: clean, aldehydic; Fragrance score after 1 day ([4]; panel of 4-6 experts, scale 0 (odourless) to 5 (extremely strong), after 1 day): 3.2; Fragrance score after 2 days ([4]; panel of 4-6 experts, scale 0 (odourless) to 5 (extremely strong), after 2 days): 3.3"
89,"CCCCCCCCCC(C)/C=[N+](\C)[O-] (stereo not shown) [Example 13, (E)-N,2-dimethylundecan-1-imine oxide]",–,–,–
75,"CCCCCCCCCC(C)/C=[N+](/[O-])CC(C)CCC (stereo not shown) [Example 15, (E)-2-methyl-N-(2-methylpentyl)undecan-1-imine oxide]",–,–,–
76,"CCCCCCCCCC(C)/C=[N+](/[O-])Cc1ccc(OC)cc1 (stereo not shown) [Example 58, (E)-N-(4-methoxybenzyl)-2-methylundecan-1-imine oxide]",–,–,–

# Second part, the molecule before the results:
Compound,Biodegradation in % [2] [%],"Fragrance score after 1 day [1, 5]","Fragrance score after 3 days [1, 5]",also measured
"CCCCCCCCCC(C)/C=[N+](/[O-])Cc1ccc(C)cc1 (stereo not shown) [Example 1, (E)-2-methyl-N-(4-methylbenzyl)undecan-1-imine oxide]",83,–,–,Odour intensity on dried fabric over time (FIG. 1) [1]: increases with time and is the highest after four days
"CC1=C(/C=C/C(C)=[N+](/[O-])C(C)C)C(C)(C)CCC1 [Example 10, (2E,3E)-N-isopropyl-4-(2,6,6-trimethylcyclohex-1-en-1-yl)but-3-en-2-imine oxide]",–,2.3,2.2,"Odour on dry fabric ([1]; 0.2% wt/wt in liquid detergent, 40° C. machine wash, line-dried fabric, odour quality by panel): ionone"
"CCCCCCCCC/C=C/C=[N+](\[O-])Cc1ccccc1 [Example 49, (1Z,2E)-N-benzyldodec-2-en-1-imine oxide]",–,2.9,3.0,–
"CCCCCCCCCC(C)C=O (stereo not shown) [Sample B, 2-methyl undecanal, reference compound]",–,–,–,Odour intensity on dried fabric over time (FIG. 1) [1]: relatively high on the freshly dried sample and decreases with time
